Patent US11464770B2, “Anticancer pharmaceutical composition” (NATIONAL CANCER CENTER, priority 2016, dated 2022)
Where two headings read alike, the source gives them in different places.

Tests used:
[1] = test system: blood cancer cell lines (e.g. HL-60, Jurkat, Raji, Ramos, Daudi, MOLT-4); test: Cell based assay, cell viability (CellTiter-Glo), blood cancer cell lines; settings: Homo sapiens
Outline: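 Read-out is ATP-dependent luminescence (CellTiter-Glo) taken after 72 h of exposure to compound at final concentrations from 0 to 2 μM. Cells were plated 24 h beforehand.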

[2] = test system: cervical carcinoma cell lines; test: Cell based assay, cell viability (CellTiter-Glo), cervical carcinoma cell lines; settings: Homo sapiens; HeLa cells
[3] = test system: brain cancer cell lines; test: Cell based assay, cell viability (CellTiter-Glo), brain cancer cell lines; settings: Homo sapiens
[4] = test system: RT4: human urinary bladder transitional cell papilloma; test: Cell based assay, cytotoxicity in RT4 papilloma cells (selectivity); settings: Homo sapiens, RT-4; RT4 cells
[5] = MV4-11, blood cancer cell line MV-4-11, 72 hours, read-out: IC50, MV-4-11
[6] = blood cancer cell line Daudi, 72 hours, read-out: IC50, Daudi
[7] = blood cancer cell line HL-60, 72 hours, read-out: IC50, HL-60
[8] = blood cancer cell line Jurkat, 72 hours, read-out: IC50, Jurkat
[9] = blood cancer cell line MOLT-4, 72 hours, read-out: IC50, MOLT-4
[10] = blood cancer cell line Raji, 72 hours, read-out: IC50, Raji
[11] = blood cancer cell line Ramos (RA 1), 72 hours, read-out: IC50, Ramos (RA 1)
[12] = blood cancer cell line U-937, 72 hours, read-out: IC50, U-937
[13] = U138-MG, U-138 MG cell line, read-out: IC50, Brain cancer cell line U-138 MG
[14] = T98G cell line, read-out: IC50, Brain cancer cell line T98G
[15] = U-251 MG cell line, read-out: IC50, Brain cancer cell line U-251 MG

SMILES | IC50 [1, 5] [nM] | IC50 [1, 6] [nM] | IC50 [1, 7] [nM] | IC50 [1, 8] [nM] | IC50 [1, 9] [nM] | IC50 [1, 10] [nM] | IC50 [1, 11] [nM] | IC50 [1, 12] [nM] | IC50 [2] [µM] | IC50 [3, 13] [nM] | IC50 [3, 14] [nM] | IC50 [3, 15] [nM] | IC50 [4] [µM]
CC(=O)c1c([S+]([O-])Cc2ccccc2)nc2c(Br)ccc(Cl)c2c1O (stereo not drawn) [Compound 4] | 1610 | > 2000 | 1980 | 1070 | 1370 | 1150 | 1760 | 1240 | > 10 | 1810 | > 10000 | 1220 | > 10
CC(=O)c1c(SCc2cc(Cl)ccc2Cl)[nH]c2c(Br)ccc(Cl)c2c1=O [Compound 43, 3-acetyl-8-bromo-5-chloro-2-((2,5-dichlorobenzyl)thio)quinolin-4(1H)-one] | > 2000 | > 2000 | > 2000 | > 2000 | > 2000 | > 2000 | > 2000 | > 2000 | > 10 | > 10000 | > 10000 | > 2000 | > 10
CC(=O)c1c([S+](C)[O-])n(S(=O)(=O)C(F)(F)F)c2c(Br)ccc(Cl)c2c1=O (stereo not drawn) [Compound 36, 3-acetyl-8-bromo-5-chloro-2-(methylsulfinyl)-1-((trifluoromethyl)sulfonyl)quinolin-4(1H)-one] | > 2000 | > 2000 | > 2000 | > 2000 | > 2000 | > 2000 | > 2000 | > 2000 | > 10 | > 2000 | > 10000 | > 2000 | > 10
CC(=O)c1c([S+]([O-])Cc2ccc(-n3cccn3)nc2)[nH]c2c(Br)ccc(Cl)c2c1=O (stereo not drawn) [Compound 99, 2-(((6-(1H-pyrazol-1-yl)pyridin-3-yl)methyl)sulfinyl)-3-acetyl-8-bromo-5-chloroquinolin-4(1H)-one] | 950 | 1000 | > 2000 | 440 | 730 | 1250 | 840 | 1360 | > 2 | 1160 | > 10000 | 790 | > 10
CC(=O)c1c([S+]([O-])Cc2ccc(C#N)s2)[nH]c2c(Br)ccc(Cl)c2c1=O (stereo not drawn) [Compound 98, 5-(((3-acetyl-8-bromo-5-chloro-4-oxo-1,4-dihydroquinolin-2-yl)sulfinyl)methyl)thiophene-2-carbonitrile] | 1240 | 1470 | > 2000 | 730 | > 2000 | > 2000 | 1230 | > 2000 | > 2 | > 2000 | > 10000 | 1250 | > 10
CC(=O)c1c([S+]([O-])CN2C(=O)c3ccccc3C2=O)[nH]c2c(Cl)ccc(Cl)c2c1=O (stereo not drawn) [Compound 90, 2-(((3-acetyl-5,8-dichloro-4-oxo-1,4-dihydroquinolin-2-yl)sulfinyl)methyl)isoindoline-1,3-dione] | > 2000 | > 2000 | > 2000 | > 2000 | > 2000 | > 2000 | > 2000 | > 2000 | > 10 | > 10000 | > 10000 | > 2000 | > 10
CC(=O)c1c([S+]([O-])Cc2ccc(C(F)(F)F)nc2C)[nH]c2c(Br)ccc(Cl)c2c1=O (stereo not drawn) [Compound 102, 3-acetyl-8-bromo-5-chloro-2-(((2-methyl-6-(trifluoromethyl)pyridin-3-yl)methyl)sulfinyl)quinolin-4(1H)-one] | 1010 | 1020 | 1870 | > 2000 | 940 | 1400 | 980 | > 2000 | > 2 | 1240 | > 10000 | > 2000 | > 10
CC(=O)c1c([S+]([O-])Cc2ccc(Cl)nc2)[nH]c2c(Br)ccc(Cl)c2c1=O (stereo not drawn) [Compound 104, 3-acetyl-8-bromo-5-chloro-2-(((6-chloropyridin-3-yl)methyl)sulfinyl)quinolin-4(1H)-one] | 950 | 1150 | > 2000 | > 2000 | 930 | 1440 | 1060 | > 2000 | > 2 | 1470 | > 10000 | > 2000 | > 10
O=C(c1c([S+]([O-])Cc2ccc(SC(F)(F)F)cc2)[nH]c2c(Br)ccc(Cl)c2c1=O)C1CC1 (stereo not drawn) [Compound 101, 8-bromo-5-chloro-3-(cyclopropanecarbonyl)-2-((4-((trifluoromethyl)thio)benzyl)sulfinyl)quinolin-4(1H)-one] | > 2000 | 1040 | > 2000 | 1010 | 1160 | 1790 | 1480 | > 2000 | > 2 | > 2000 | > 10000 | > 2000 | > 10
CC(=O)c1c(SCc2cccc(C#N)c2)[nH]c2c(Br)ccc(Cl)c2c1=O [Compound 27, 3-(((3-acetyl-8-bromo-5-chloro-4-oxo-1,4-dihydroquinolin-2-yl)thio)methyl)benzonitrile] | > 2000 | > 2000 | > 2000 | > 2000 | > 2000 | > 2000 | > 2000 | > 2000 | > 10 | > 10000 | > 10000 | > 2000 | > 10
CC(=O)c1c([S+](C)[O-])n(S(=O)(=O)c2ccc(C(C)(C)C)cc2)c2c(Br)ccc(Cl)c2c1=O (stereo not drawn) [Compound 42, 3-acetyl-8-bromo-1-((4-(tert-butyl)phenyl)sulfonyl)-5-chloro-2-(methylsulfinyl)quinolin-4(1H)-one] | > 2000 | > 2000 | > 2000 | > 2000 | > 2000 | > 2000 | > 2000 | > 2000 | > 10 | > 2000 | > 10000 | > 2000 | > 10
CC(=O)c1c([S+]([O-])C(C)C)[nH]c2c(Br)ccc(Cl)c2c1=O (stereo not drawn) [Compound 25, 3-acetyl-8-bromo-5-chloro-2-(isopropylsulfinyl)quinolin-4(1H)-one] | > 2000 | > 2000 | > 2000 | > 2000 | > 2000 | > 2000 | > 2000 | > 2000 | > 10 | > 10000 | > 10000 | > 2000 | > 10
CC(=O)c1c([S+](C)[O-])[nH]c2c(Br)ccc(Cl)c2c1=O (stereo not drawn) [Compound 1, 3-acetyl-8-bromo-5-chloro-2-(methylsulfinyl)quinolin-4(1H)-one] | 1390 | > 2000 | 1720 | > 2000 | 1850 | > 2000 | > 2000 | > 2000 | > 10 | > 2000 | > 10000 | > 2000 | > 10
CSc1c(C(C)=O)c(=O)c2c(Cl)ccc(Br)c2n1C [Compound 5, 3-acetyl-8-bromo-5-chloro-1-methyl-2-(methylthio)quinolin-4(1H)-one] | > 2000 | > 2000 | > 2000 | > 2000 | > 2000 | > 2000 | > 2000 | > 2000 | > 10 | > 10000 | > 10000 | > 2000 | > 10
CC(=O)c1c([S+](C)[O-])n(C(C)=O)c2c(Br)ccc(Cl)c2c1=O (stereo not drawn) [Compound 19, 1,1′-(8-bromo-5-chloro-2-(methylsulfinyl)-4-oxoquinoline-1,3(4H)-diyl)bis(ethan-1-one)] | > 2000 | > 2000 | > 2000 | > 2000 | > 2000 | > 2000 | > 2000 | > 2000 | > 10 | > 10000 | > 10000 | > 2000 | > 10
